Test results as given in ChEMBL document CHEMBL1201862, “PubChem BioAssay data set” (2004).
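A five-concentration, 48-hour dose response in 96-well plates underlies each endpoint, interpolated linearly between surrounding concentrations. The concentration for 50% growth inhibition is given as GI50.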 Calls of active or inactive are those of the source. Rule as the data show it: active = GI50 up to about 1.1 µM and inactive = higher.

What was measured:
Assay in all cases: NCI anticancer screen, dose series, 48 h
KM12 = system: KM12
DU-145 = system: DU-145
A498 = system: A498
TK-10 = system: TK-10
T47D = system: T47D
SF-268 = system: SF-268
MDA-N = system: MDA-N
SR = system: SR
PC-3 = system: PC-3
OVCAR-8 = system: OVCAR-8
NCI-H23 = system: NCI-H23
DLD-1 = system: DLD-1
DMS-114 = system: DMS-114
DMS-273 = system: DMS-273
XF498 = system: XF498
SNB-78 = system: SNB-78
M19-MEL = system: M19-MEL
SK-OV-3 = system: SK-OV-3
KM-20L2 = system: KM-20L2
786-0 = system: 786-0

SMILES	GI50 (KM12)	GI50 (DU-145)	GI50 (A498)	GI50 (TK-10)	GI50 (T47D)	GI50 (SF-268)	GI50 (MDA-N)	GI50 (SR)	GI50 (PC-3)	GI50 (OVCAR-8)	GI50 (NCI-H23)	GI50 (DLD-1)	GI50 (DMS-114)	GI50 (DMS-273)	GI50 (XF498)	GI50 (SNB-78)	GI50 (M19-MEL)	GI50 (SK-OV-3)	GI50 (KM-20L2)	GI50 (786-0)
c1ccc2c(c1)c1ccccc1n2Cn1c2ccccc2c2ccccc21	> 100 µM (inactive)	> 100 µM (inactive)	> 100 µM (inactive)	> 100 µM (inactive)	> 100 µM (inactive)	> 100 µM (inactive)	> 100 µM (inactive)	> 100 µM (inactive)	> 100 µM (inactive)	> 100 µM (inactive)	> 100 µM (inactive)	–	–	–	–	–	–	–	–	–
OCc1cc2ccncc2c2c1[nH]c1ccccc12	4.68 µM (inactive)	–	4.5 µM (inactive)	11.8 µM (inactive)	–	4.66 µM (inactive)	–	2.83 µM (inactive)	–	4.95 µM (inactive)	7.26 µM (inactive)	3.96 µM (inactive)	6.38 µM (inactive)	4.04 µM (inactive)	5.25 µM (inactive)	13.2 µM (inactive)	–	–	–	–
CCOC(=O)NC(=O)c1cn(C2CCCCC2)c(=O)n(C)c1=O	> 100 µM (inactive)	–	> 100 µM (inactive)	> 100 µM (inactive)	–	> 100 µM (inactive)	–	> 100 µM (inactive)	–	> 100 µM (inactive)	> 100 µM (inactive)	> 100 µM (inactive)	> 100 µM (inactive)	> 100 µM (inactive)	–	> 100 µM (inactive)	> 100 µM (inactive)	> 100 µM (inactive)	> 100 µM (inactive)	> 100 µM (inactive)
C/C(=N\NC(=O)c1ccncc1)c1cccc(C(F)(F)F)c1	> 10 µM (inactive)	> 10 µM (inactive)	–	> 10 µM (inactive)	> 10 µM (inactive)	> 10 µM (inactive)	> 10 µM (inactive)	> 10 µM (inactive)	–	> 10 µM (inactive)	> 10 µM (inactive)	–	–	–	–	–	–	> 10 µM (inactive)	–	–
CCOC(=O)C1C(O)CC2c3ccccc3-c3ccccc3C21 (configuration not stated)	36.1 µM (inactive)	> 100 µM (inactive)	20.2 µM (inactive)	55.2 µM (inactive)	> 100 µM (inactive)	31.4 µM (inactive)	69 µM (inactive)	> 100 µM (inactive)	> 100 µM (inactive)	21.5 µM (inactive)	42.5 µM (inactive)	–	–	–	–	–	–	21.2 µM (inactive)	–	30.4 µM (inactive)
C=C[C@H]1CN2CCc3c([nH]c4cc(O)ccc34)[C@@H]2C[C@@H]1C[C@H]1c2[nH]c3ccccc3c2CCN1C	3.66 µM (inactive)	15.6 µM (inactive)	2.16 µM (inactive)	8.57 µM (inactive)	15.6 µM (inactive)	6.04 µM (inactive)	1.78 µM (inactive)	2.67 µM (inactive)	4.89 µM (inactive)	6.11 µM (inactive)	16 µM (inactive)	–	–	–	–	–	–	13.8 µM (inactive)	–	1.84 µM (inactive)
C/C(=N\NC(=S)N(C)C)c1nc2cccnc2[nH]1	–	0.504 µM (active)	8.28 µM (inactive)	2.1 µM (inactive)	0.475 µM (active)	0.59 µM (active)	1.27 µM (inactive)	0.679 µM (active)	0.698 µM (active)	0.982 µM (active)	–	–	–	–	–	–	–	0.413 µM (active)	–	0.597 µM (active)
CCc1cc2c(oc3cc4ccccc4cc32)c(=O)[nH]1	> 10 µM (inactive)	> 10 µM (inactive)	–	> 10 µM (inactive)	–	> 10 µM (inactive)	> 10 µM (inactive)	> 10 µM (inactive)	> 10 µM (inactive)	> 10 µM (inactive)	–	–	–	–	–	–	–	–	–	> 10 µM (inactive)
N=C(N)c1csc([C@@H]2O[C@H](CO)[C@@H](O)[C@H]2O)n1	> 100 µM (inactive)	–	–	> 100 µM (inactive)	–	> 100 µM (inactive)	–	> 100 µM (inactive)	–	> 100 µM (inactive)	> 100 µM (inactive)	> 100 µM (inactive)	–	> 100 µM (inactive)	> 100 µM (inactive)	> 100 µM (inactive)	> 100 µM (inactive)	> 100 µM (inactive)	–	–
O=S(=O)(/N=C(\NO)Nc1ccc(Cl)cc1)c1ccc(-c2ccccn2)s1	86.9 µM (inactive)	> 100 µM (inactive)	–	61.5 µM (inactive)	62.4 µM (inactive)	35.7 µM (inactive)	24.2 µM (inactive)	> 100 µM (inactive)	38.8 µM (inactive)	69.5 µM (inactive)	37.3 µM (inactive)	–	–	–	–	–	–	56.1 µM (inactive)	–	–
Cc1oc2nc(N(C)C)n3cnnc3c2c1C	> 100 µM (inactive)	> 100 µM (inactive)	> 100 µM (inactive)	> 100 µM (inactive)	> 100 µM (inactive)	> 100 µM (inactive)	–	> 100 µM (inactive)	> 100 µM (inactive)	> 100 µM (inactive)	> 100 µM (inactive)	–	–	–	–	–	–	> 100 µM (inactive)	–	> 100 µM (inactive)
CCC1(C)NN=c2s/c(=C/c3ccc(OC)cc3)c(=O)n2N1 (configuration not stated)	> 100 µM (inactive)	–	–	> 100 µM (inactive)	–	65 µM (inactive)	–	> 100 µM (inactive)	–	> 100 µM (inactive)	> 100 µM (inactive)	> 100 µM (inactive)	–	> 100 µM (inactive)	> 100 µM (inactive)	> 100 µM (inactive)	–	> 100 µM (inactive)	> 100 µM (inactive)	> 100 µM (inactive)
CCN(CC)CCSc1nc(-c2c[nH]c3nc(C)ccc3c2=O)n[nH]1	> 100 µM (inactive)	> 100 µM (inactive)	> 100 µM (inactive)	> 100 µM (inactive)	> 100 µM (inactive)	> 100 µM (inactive)	> 100 µM (inactive)	–	> 100 µM (inactive)	> 100 µM (inactive)	> 100 µM (inactive)	–	–	–	–	–	–	–	–	> 100 µM (inactive)
N#C/C(=C/NC(=S)c1ccncc1)C(N)=O	> 100 µM (inactive)	> 100 µM (inactive)	> 100 µM (inactive)	> 100 µM (inactive)	> 100 µM (inactive)	> 100 µM (inactive)	> 100 µM (inactive)	–	–	> 100 µM (inactive)	> 100 µM (inactive)	–	–	–	–	–	–	> 100 µM (inactive)	–	> 100 µM (inactive)
CSC1=N/C(=C\c2ccccc2)C(=O)N1CN1CCCCC1	65 µM (inactive)	> 100 µM (inactive)	77.8 µM (inactive)	99.3 µM (inactive)	–	55.5 µM (inactive)	88.3 µM (inactive)	31.3 µM (inactive)	55.5 µM (inactive)	30.1 µM (inactive)	76.6 µM (inactive)	–	–	–	–	–	–	> 100 µM (inactive)	–	42.2 µM (inactive)
Cc1ccc(S(=O)(=O)N/N=C2\C=CC3(CC2)C(=O)N(I)c2ccccc23)cc1 (configuration not stated)	82.2 µM (inactive)	> 10 µM (inactive)	> 100 µM (inactive)	> 100 µM (inactive)	> 100 µM (inactive)	90.6 µM (inactive)	83 µM (inactive)	86.9 µM (inactive)	63.1 µM (inactive)	> 100 µM (inactive)	> 100 µM (inactive)	–	–	–	–	–	–	> 100 µM (inactive)	–	> 100 µM (inactive)
Cc1ccc2nc(C(C)C)c(=O)[nH]c2c1	31.8 µM (inactive)	> 100 µM (inactive)	> 100 µM (inactive)	> 100 µM (inactive)	> 100 µM (inactive)	> 100 µM (inactive)	> 100 µM (inactive)	> 100 µM (inactive)	19.9 µM (inactive)	26.1 µM (inactive)	> 100 µM (inactive)	–	–	–	–	–	–	> 100 µM (inactive)	–	52.7 µM (inactive)
Nc1nncc2c1ccn2C1OC(CO)C(O)C1O (configuration not stated)	> 100 µM (inactive)	–	> 100 µM (inactive)	> 100 µM (inactive)	–	> 100 µM (inactive)	–	> 100 µM (inactive)	–	> 100 µM (inactive)	> 100 µM (inactive)	> 100 µM (inactive)	> 100 µM (inactive)	> 100 µM (inactive)	–	> 100 µM (inactive)	> 100 µM (inactive)	> 100 µM (inactive)	> 100 µM (inactive)	–
CC1=NN(C(=O)c2ccccc2)C(=O)C1/N=N/c1ccccc1C(=O)O (configuration not stated)	7.8 µM (inactive)	–	5.47 µM (inactive)	–	–	9.79 µM (inactive)	–	–	–	7.87 µM (inactive)	3.81 µM (inactive)	6.89 µM (inactive)	4.08 µM (inactive)	3.05 µM (inactive)	2.72 µM (inactive)	–	5.92 µM (inactive)	> 25.2 µM (inactive)	63.1 µM (inactive)	–
COc1c(C(=O)/C(=N/Nc2ccccc2)C(C)=O)c(O)c(OC)c2occc12	27.7 µM (inactive)	> 100 µM (inactive)	–	77.1 µM (inactive)	19.3 µM (inactive)	> 100 µM (inactive)	32.1 µM (inactive)	35.8 µM (inactive)	27 µM (inactive)	62.2 µM (inactive)	33.3 µM (inactive)	–	–	–	–	–	–	65.2 µM (inactive)	–	> 100 µM (inactive)
O=C(N/N=C/c1cc(-c2ccccc2Cl)c(-c2ccccc2Cl)o1)c1ccncc1	–	–	> 100 µM (inactive)	> 100 µM (inactive)	–	> 100 µM (inactive)	–	–	–	–	> 100 µM (inactive)	> 100 µM (inactive)	87.9 µM (inactive)	–	> 100 µM (inactive)	–	> 100 µM (inactive)	> 100 µM (inactive)	> 100 µM (inactive)	> 100 µM (inactive)
COc1ccc(C2c3cc4c(cc3OC(Nc3ccccc3)C2C)OCO4)cc1 (configuration not stated)	28.6 µM (inactive)	57.9 µM (inactive)	58.6 µM (inactive)	91.6 µM (inactive)	36.1 µM (inactive)	42.9 µM (inactive)	> 100 µM (inactive)	2.42 µM (inactive)	28.3 µM (inactive)	–	64 µM (inactive)	–	–	–	–	–	–	> 100 µM (inactive)	–	–
